Test results from ChEMBL document CHEMBL3259804, “Syk inhibitors with high potency in presence of blood” (Bioorg Med Chem Lett, 2014).

Experiments:
[1] = molecular target: T1, Tyrosine-protein kinase SYK (Homo sapiens, UniProt P43405); test: Inhibition of Syk (unknown origin) using 4 uM peptide assessed as product formation after 60 mins incubation by microfluidic mobility shift assay
[2] = molecular target: Tyrosine-protein kinase JAK2 (Homo sapiens, UniProt O60674); test: Inhibition of JAK2 (unknown origin)
[3] = molecular target: T1, Tyrosine-protein kinase SYK; test: Inhibition of Syk in human whole blood assessed as inhibition of P-SLP76 in CD14+ monocytes by flow cytometry
[4] = molecular target: T1, Tyrosine-protein kinase SYK; test: Inhibition of Syk in anti IgM-stimulated human Ramos cells assessed as BLNK phosphorylation by cellular assay
[5] = molecular target: Tyrosine-protein kinase Lyn (Homo sapiens, UniProt P07948); test: Inhibition of Lyn (unknown origin)
[6] = molecular target: T2, Tyrosine-protein kinase ZAP-70 (Homo sapiens, UniProt P43403); test: Inhibition of ZAP70 (unknown origin)
T2 sequence (P43403 whole entry): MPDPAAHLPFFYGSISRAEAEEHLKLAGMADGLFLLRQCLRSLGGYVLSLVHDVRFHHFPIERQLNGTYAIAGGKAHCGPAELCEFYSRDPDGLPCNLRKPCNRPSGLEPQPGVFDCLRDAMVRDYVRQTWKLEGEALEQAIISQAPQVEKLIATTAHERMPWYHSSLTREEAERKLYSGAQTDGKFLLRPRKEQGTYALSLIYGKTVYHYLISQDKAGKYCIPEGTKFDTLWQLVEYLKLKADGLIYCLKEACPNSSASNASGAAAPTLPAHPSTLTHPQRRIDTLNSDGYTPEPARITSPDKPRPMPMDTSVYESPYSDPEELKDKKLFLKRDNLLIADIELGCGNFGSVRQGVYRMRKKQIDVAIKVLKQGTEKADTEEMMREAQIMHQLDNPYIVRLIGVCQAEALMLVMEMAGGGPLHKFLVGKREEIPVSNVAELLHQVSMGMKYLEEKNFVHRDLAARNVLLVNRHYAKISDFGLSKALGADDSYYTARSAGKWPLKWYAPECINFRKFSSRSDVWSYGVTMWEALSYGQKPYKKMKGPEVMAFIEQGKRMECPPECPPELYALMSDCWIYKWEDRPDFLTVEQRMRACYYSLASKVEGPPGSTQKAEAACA

Bone marrow cell = test: Inhibition of IL3 dependent proliferation in […] mouse bone marrow cells using [3H]thymidine by liquid scintillation counting; type: functional, cell-based
[7] = Volume of distribution at steady state in Sprague-Dawley rat at 1 mg/kg, iv and 3 mg/kg, po; type: ADME, organism-based; settings: in vivo, read-out: Vdss
Rattus norvegicus [8] = test: Cmax/dose in Sprague-Dawley rat at 1 mg/kg, iv and 3 mg/kg, po; type: ADME, organism-based; settings: in vivo
[9] = molecular target: Voltage-gated inwardly rectifying potassium channel KCNH2 (Homo sapiens, UniProt Q12809); test: Inhibition of human ERG by Q-patch assay
Rattus norvegicus [10] = test: Dose normalized AUC in Sprague-Dawley rat at 3 mg/kg, po; type: ADME, organism-based; set-up: dose 3 mg/kg, route oral; settings: in vivo
[11] = Clearance in Sprague-Dawley rat at 1 mg/kg, iv and 3 mg/kg, po; type: ADME, organism-based; settings: in vivo
[12] = Terminal half life Sprague-Dawley rat at 1 mg/kg, iv and 3 mg/kg, po; type: ADME, organism-based; settings: in vivo, read-out: beta t1/2 (converted)
[13] = Plasma bioavailability in Sprague-Dawley rat at 1 mg/kg, iv and 3 mg/kg, po; type: ADME, organism-based
Rattus norvegicus [14] = test: Dose normalized AUC in Sprague-Dawley rat at 1 mg/kg, iv; type: ADME, organism-based; set-up: dose 1 mg/kg, route intravenous; settings: in vivo
[15] = Half life in rat liver microsomes; type: ADME; settings: liver microsomes
Liver = test: Half life in rat liver S9 fraction assessed as conversion into 5-(1H-indol-7-ylamino)-7-((1R,2S)-2-aminocyclohexylamino)pyrido[4,3-d]pyrimidine-2,4(1H,3H)-dione; type: ADME, subcellular
[16] = Half life in rat liver S9 fraction assessed as conversion into 5-(1H-indol-7-ylamino)-7-((1R,2S)-2-aminocyclohexylamino)pyrido[4,3-d]pyrimidine-2,4(1H,3H)-dione in presence of NADPH; type: ADME, subcellular
Rattus norvegicus [17] = test: Cmax/dose in Wistar rat at 3 mg/kg, iv and 10 mg/kg, po; type: ADME, organism-based; settings: in vivo
[18] = molecular target: T3, Receptor-type tyrosine-protein kinase FLT3 (Homo sapiens, UniProt P36888); test: Inhibition of Flt3 (unknown origin)
T3 sequence (P36888 whole entry): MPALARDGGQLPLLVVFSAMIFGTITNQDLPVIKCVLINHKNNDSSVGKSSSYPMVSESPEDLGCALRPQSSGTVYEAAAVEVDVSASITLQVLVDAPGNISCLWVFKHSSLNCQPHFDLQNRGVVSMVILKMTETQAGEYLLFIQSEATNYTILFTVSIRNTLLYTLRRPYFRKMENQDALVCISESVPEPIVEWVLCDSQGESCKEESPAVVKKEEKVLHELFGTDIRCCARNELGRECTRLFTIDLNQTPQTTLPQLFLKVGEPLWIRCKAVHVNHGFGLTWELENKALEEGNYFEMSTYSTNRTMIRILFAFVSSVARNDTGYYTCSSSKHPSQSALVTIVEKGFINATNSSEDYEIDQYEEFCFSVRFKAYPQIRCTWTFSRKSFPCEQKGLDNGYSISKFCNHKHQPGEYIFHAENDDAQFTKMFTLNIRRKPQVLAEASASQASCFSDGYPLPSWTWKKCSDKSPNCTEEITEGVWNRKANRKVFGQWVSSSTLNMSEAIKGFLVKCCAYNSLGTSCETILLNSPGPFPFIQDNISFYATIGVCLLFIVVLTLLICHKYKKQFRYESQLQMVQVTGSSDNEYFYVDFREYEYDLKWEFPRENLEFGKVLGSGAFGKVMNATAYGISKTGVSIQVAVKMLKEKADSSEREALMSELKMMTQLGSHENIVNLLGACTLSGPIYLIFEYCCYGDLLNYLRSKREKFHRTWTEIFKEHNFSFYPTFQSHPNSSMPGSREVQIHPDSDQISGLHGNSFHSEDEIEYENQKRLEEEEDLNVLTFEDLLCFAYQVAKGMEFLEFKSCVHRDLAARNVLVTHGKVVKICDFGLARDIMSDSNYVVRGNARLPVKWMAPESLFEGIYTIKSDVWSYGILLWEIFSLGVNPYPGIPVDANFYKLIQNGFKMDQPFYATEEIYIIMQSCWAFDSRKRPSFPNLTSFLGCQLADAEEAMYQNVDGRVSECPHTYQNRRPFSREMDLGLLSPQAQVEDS

Rattus norvegicus [19] = test: Dose normalized AUC in Wistar rat at 10 mg/kg, po; type: ADME, organism-based; set-up: dose 10 mg/kg, route oral; settings: in vivo
[20] = Volume of distribution at steady state in Wistar rat at 3 mg/kg, iv and 10 mg/kg, po; type: ADME, organism-based; settings: in vivo, read-out: Vdss
Rattus norvegicus [21] = test: Dose normalized AUC in Wistar rat at 3 mg/kg, iv; type: ADME, organism-based; set-up: dose 3 mg/kg, route intravenous; settings: in vivo
[22] = Terminal half life Wistar rat at 3 mg/kg, iv and 10 mg/kg, po; type: ADME, organism-based; settings: in vivo, read-out: beta t1/2 (converted)
[23] = Clearance in Wistar rat at 3 mg/kg, iv and 10 mg/kg, po; type: ADME, organism-based; settings: in vivo
[24] = Plasma bioavailability in Wistar rat at 3 mg/kg, iv and 10 mg/kg, po; type: ADME, organism-based

Sequence of Voltage-gated inwardly rectifying potassium channel KCNH2 (Q12809 whole entry): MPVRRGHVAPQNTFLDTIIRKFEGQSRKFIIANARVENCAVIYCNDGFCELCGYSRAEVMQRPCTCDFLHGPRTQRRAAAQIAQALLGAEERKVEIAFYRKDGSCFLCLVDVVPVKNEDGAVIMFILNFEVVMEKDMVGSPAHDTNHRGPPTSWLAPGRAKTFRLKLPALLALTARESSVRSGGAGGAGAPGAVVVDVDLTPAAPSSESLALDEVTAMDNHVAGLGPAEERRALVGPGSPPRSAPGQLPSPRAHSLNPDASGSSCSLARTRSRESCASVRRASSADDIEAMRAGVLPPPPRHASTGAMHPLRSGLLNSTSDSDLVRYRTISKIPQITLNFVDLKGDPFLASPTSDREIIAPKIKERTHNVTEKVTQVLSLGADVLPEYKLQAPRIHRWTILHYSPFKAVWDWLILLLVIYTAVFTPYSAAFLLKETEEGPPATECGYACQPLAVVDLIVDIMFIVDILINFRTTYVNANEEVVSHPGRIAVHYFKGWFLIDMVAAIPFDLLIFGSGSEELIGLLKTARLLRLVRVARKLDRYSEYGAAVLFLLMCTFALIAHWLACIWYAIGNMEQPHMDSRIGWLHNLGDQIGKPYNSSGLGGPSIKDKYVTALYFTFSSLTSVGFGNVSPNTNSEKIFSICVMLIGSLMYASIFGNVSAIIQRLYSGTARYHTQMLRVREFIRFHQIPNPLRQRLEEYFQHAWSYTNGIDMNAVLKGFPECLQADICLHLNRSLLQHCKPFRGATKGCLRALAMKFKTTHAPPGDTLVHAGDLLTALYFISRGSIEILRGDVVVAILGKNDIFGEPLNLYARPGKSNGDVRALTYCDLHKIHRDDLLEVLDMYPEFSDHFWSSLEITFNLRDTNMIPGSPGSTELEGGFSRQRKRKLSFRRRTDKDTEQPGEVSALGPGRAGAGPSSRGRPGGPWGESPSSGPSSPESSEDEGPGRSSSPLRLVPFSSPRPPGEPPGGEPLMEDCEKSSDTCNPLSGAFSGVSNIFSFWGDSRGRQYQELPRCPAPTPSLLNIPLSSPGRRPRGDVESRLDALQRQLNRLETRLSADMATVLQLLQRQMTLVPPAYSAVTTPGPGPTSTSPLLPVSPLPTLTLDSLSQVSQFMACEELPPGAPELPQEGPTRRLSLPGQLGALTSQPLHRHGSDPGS
Sequence of Tyrosine-protein kinase JAK2 (O60674 whole entry): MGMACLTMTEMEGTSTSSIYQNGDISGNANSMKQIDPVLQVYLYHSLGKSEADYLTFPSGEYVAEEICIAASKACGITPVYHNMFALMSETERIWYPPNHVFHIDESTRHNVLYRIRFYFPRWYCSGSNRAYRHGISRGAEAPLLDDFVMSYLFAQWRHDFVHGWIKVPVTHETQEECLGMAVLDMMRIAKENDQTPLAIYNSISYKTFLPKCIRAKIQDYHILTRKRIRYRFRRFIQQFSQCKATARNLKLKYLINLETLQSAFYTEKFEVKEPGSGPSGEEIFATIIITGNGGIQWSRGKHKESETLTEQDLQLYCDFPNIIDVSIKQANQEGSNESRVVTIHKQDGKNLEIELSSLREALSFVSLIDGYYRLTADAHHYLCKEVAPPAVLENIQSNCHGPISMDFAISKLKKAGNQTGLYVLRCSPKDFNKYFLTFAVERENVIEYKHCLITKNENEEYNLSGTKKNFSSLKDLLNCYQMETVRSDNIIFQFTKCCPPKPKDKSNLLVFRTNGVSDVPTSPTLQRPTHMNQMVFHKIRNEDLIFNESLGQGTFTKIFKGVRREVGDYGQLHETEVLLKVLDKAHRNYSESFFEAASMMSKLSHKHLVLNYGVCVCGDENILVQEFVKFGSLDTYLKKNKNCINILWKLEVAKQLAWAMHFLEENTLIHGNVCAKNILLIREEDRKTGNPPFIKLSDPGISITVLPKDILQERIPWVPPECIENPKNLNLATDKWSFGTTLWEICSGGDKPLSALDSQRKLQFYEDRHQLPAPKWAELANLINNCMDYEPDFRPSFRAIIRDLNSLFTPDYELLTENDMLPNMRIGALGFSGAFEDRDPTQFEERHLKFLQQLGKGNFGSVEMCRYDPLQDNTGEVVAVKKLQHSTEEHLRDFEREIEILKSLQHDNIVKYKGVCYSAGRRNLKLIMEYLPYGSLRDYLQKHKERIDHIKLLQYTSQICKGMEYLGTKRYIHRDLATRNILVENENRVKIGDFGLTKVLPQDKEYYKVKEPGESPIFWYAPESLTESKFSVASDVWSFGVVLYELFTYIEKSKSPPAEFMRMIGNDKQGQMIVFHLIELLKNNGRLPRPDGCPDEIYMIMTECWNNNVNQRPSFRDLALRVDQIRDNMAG
Sequence of Tyrosine-protein kinase Lyn (P07948 whole entry): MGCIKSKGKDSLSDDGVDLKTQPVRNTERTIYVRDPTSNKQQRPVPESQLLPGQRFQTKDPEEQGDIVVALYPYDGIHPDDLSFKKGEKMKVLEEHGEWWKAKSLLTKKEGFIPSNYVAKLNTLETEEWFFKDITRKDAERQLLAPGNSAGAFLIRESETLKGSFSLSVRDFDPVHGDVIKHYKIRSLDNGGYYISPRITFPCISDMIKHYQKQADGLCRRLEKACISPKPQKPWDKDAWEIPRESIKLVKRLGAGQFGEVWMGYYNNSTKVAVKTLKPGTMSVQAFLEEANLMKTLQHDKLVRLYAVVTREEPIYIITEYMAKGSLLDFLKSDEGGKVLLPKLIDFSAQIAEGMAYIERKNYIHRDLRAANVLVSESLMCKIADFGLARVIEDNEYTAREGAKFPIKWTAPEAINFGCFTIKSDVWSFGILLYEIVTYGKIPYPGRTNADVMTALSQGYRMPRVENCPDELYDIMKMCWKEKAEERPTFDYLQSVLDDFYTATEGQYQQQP

Row | IC50 [1] | IC50 [2] | IC50 [3] | IC50 [4] | IC50 [5] | IC50 [6] | half-life [15] | t1/2 (Liver) | t1/2 [16] | SMILES | IC50 (Bone marrow cell) | IC50 [9] | further results
1 | 165 nM | 950 nM | 1990 nM | 378 nM | 315 nM | 3000 nM |  |  |  | O=c1[nH]cnc2cc(N[C@@H]3CCCNC3)nc(Nc3cccc4cc[nH]c34)c12 |  |  | 
2 | 1 nM | 184 nM | 299 nM | 37 nM | 69 nM | 47 nM | 20 min |  |  | Cc1c[nH]c2c(Nc3nc(N[C@@H]4CCOC[C@@H]4N)cc4nc[nH]c(=O)c34)cccc12 | 5980 nM | > 30000 nM | Vd [7]: 12 L/kg; Cmax/dose (Rattus norvegicus [8]): 2 nM; AUC/dose (Rattus norvegicus [10]): 9 nM·h; clearance [11]: 112 mL/min/kg; half-life [12]: 198 min; bioavailability [13]: 2%; AUC/dose (Rattus norvegicus [14]): 401 nM·h
3 | 480 nM | > 10000 nM |  |  | > 10000 nM | > 10000 nM | 59 min | > 120 min | > 120 min | Cc1nc2cc(N[C@@H]3CCCC[C@@H]3N)nc(Nc3cccc4c(C)c[nH]c34)c2c(=O)[nH]1 |  |  | 
4 | 1 nM |  | 376 nM | 78 nM | 190 nM | 18 nM | 22 min | > 120 min | > 120 min | Cn1cc2c(Nc3nc(N[C@@H]4CCOC[C@@H]4N)cc4cc[nH]c(=O)c34)cccc2n1 | 1440 nM | > 30000 nM | 
5 | 4 nM | 1230 nM |  | 283 nM | 1800 nM | 350 nM | 9 min | > 120 min | > 120 min | N[C@H]1CCCC[C@H]1Nc1cc2cc[nH]c(=O)c2c(Nc2cccc3c(Cl)c[nH]c23)n1 |  |  | 
6 | 22 nM | 680 nM | 433 nM | 55 nM | 1200 nM | 340 nM | 50 min |  |  | N[C@H]1COCC[C@H]1Nc1cc2cc[nH]c(=O)c2c(Nc2cccc3cc[nH]c23)n1 | 3510 nM | 24900 nM | Cmax/dose (Rattus norvegicus [17]): 2 nM; IC50 [18]: 20 nM; AUC/dose (Rattus norvegicus [19]): 19 nM·h; Vd [20]: 18 L/kg; AUC/dose (Rattus norvegicus [21]): 299 nM·h; half-life [22]: 126 min; clearance [23]: 142 mL/min/kg; bioavailability [24]: 7%
7 | 3 nM | 300 nM | 430 nM | 95 nM | 550 nM | 81 nM | 27 min |  |  | Cc1c[nH]c2c(Nc3nc(N[C@@H]4CCCC[C@@H]4N)cc4cc[nH]c(=O)c34)cccc12 | 4940 nM |  | 
8 | 1900 nM |  |  |  |  |  |  |  |  | N[C@H]1CCCC[C@H]1Nc1cc2[nH]c(=O)[nH]c(=O)c2c(Nc2cccc3cc[nH]c23)n1 |  |  | 
9 |  |  |  |  |  |  |  |  |  | COc1cc(Nc2ncc(F)c(Nc3ccc4c(n3)NC(=O)C(C)(C)O4)n2)cc(OC)c1OC [R-406] | 147 nM |  | 
